Laboratory results: publication PMC9168383, “Structural and functional insights into the DNA damage-inducible protein 1 (Ddi1) from protozoa” (Current Research in Structural Biology, 2022)
Ends that are not written are not given here.

Experiments:
ToxoDdi1-RVP [1] = molecular target: T1, ToxoDdi1-RVP (Toxoplasma gondii, UniProt S7W9N7); experiment: FRET activity assay with HIV protease substrate-1 and inhibition by HIV protease inhibitors, ToxoDdi1-RVP; format: biochemical, T. gondii
Procedure: (§1) The activity assay was carried out using HIV protease substrate-1 (Sigma-aldrich). […] It contains the HIV protease cleavage site (Tyr-Pro) and two covalently modified amino acids for the detection of the proteolytic activity: the fluorophore EDANS was attached to the glutamic acid residue on the N-terminal side and the acceptor chromophore DABCYL to the lysine residue on the C-terminal side of the scissile bond. EDANS excited with light at 340 nm emits light at 490 nm which gets absorbed by the DABCYL group. Cleavage of the peptide separates the modified amino acids quenching FRET and emission could be detected at 490 nm ToxoDdi1-RVP and CrypDdi1-RVP were added in different concentrations to 2 μM of HIV protease substrate-1 in a buffer containing 0.1M sodium acetate pH 4.5, 1.0 M sodium chloride, 1.0 mM EDTA, 1.0 mM DTT and 10% DMSO. […] All the samples were incubated at 37 °C for 1 h and the fluorescence emission was recorded at 490 nm.

ToxoDdi1-RVP [2] = molecular target: T1, ToxoDdi1-RVP; experiment: biochemical; format: binding
CrypDdi1-RVP [3] = molecular target: T2, CrypDdi1-RVP (Cryptosporidium hominis, UniProt A0A0S4TE75); experiment: Bio-layer interferometry (BLI), CrypDdi1-RVP; format: binding, C. hominis; settings: inhibitor 75-600 μM; for binding of inhibitor to CrypDdi1-RVP: MES pH 5.5
T. gondii = settings: ref Wang et al., 2019; cited from earlier work
human Ddi2 = settings: ref Gu et al., 2020, Fassmannova et al.; cited from earlier work
LeishDdi1-fl = molecular target: T3, LeishDdi1-fl (Leishmania major, UniProt I7HUG0); experiment: BLI binding of peptides to LeishDdi1-fl; design: species or system L. major; settings: 5 mM peptide immobilized on AR2G tip, LeishDdi1-fl in solution, 20 mM HEPES pH 7.5, 100 mM NaCl, 10 min, 1:1 Langmuir
T3 construct: The full length Ddi1 construct, LeishDdi1-fl (1–390 aa) was cloned in pET-28a vector; hexa-histidine (N); made in house; host or cells: E. coli BL-21

[4] = molecular target: CrypDdi1-RVP (Cryptosporidium hominis); experiment: crystal structure; CrypDdi1-RVP, microbatch, 8 mg/ml, 0.1 M MES-sodium hydroxide pH 6.0, 30% polyacrylate sodium salt, 10% ethanol, 291 K; space group H32, one molecule in the asymmetric unit, dimer by crystallographic 2-fold symmetry
CrypDdi1-RVP [5] = molecular target: T2, CrypDdi1-RVP; experiment: FRET activity assay with HIV protease substrate-1 and inhibition by HIV protease inhibitors, CrypDdi1-RVP; format: biochemical, C. hominis
Procedure: as §1

ToxoDdi1-RVP [6] = molecular target: T1, ToxoDdi1-RVP; experiment: HPLC cleavage of HIV protease substrate-1 by ToxoDdi1-RVP; format: biochemical, T. gondii; settings: 10 μM substrate, 22 μg/ml ToxoDdi1-RVP, 100 mM sodium acetate pH 4.7, 1 M NaCl, 1 mM DTT, 37 °C, UV 490 nm
CrypDdi1-RVP [7] = molecular target: T2, CrypDdi1-RVP; experiment: HPLC cleavage of HIV protease substrate-1 by CrypDdi1-RVP; format: biochemical, C. hominis; settings: 10 μM substrate, 22 μg/ml CrypDdi1-RVP, UV 490 nm
[8] = molecular target: ToxoDdi1-RVP (Toxoplasma gondii); experiment: crystal structure; ToxoDdi1-RVP, microbatch, 8 mg/ml, 1.8 M ammonium citrate tribasic pH 7.0, 30% 2-propanol, 291 K; space group P41212, six dimers in the asymmetric unit

T1 sequence (S7W9N7 entry or part of it): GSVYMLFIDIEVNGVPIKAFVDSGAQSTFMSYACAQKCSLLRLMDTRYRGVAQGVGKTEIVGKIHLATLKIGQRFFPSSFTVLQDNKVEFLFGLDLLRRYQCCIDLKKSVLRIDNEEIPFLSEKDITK
T2 sequence (A0A0S4TE75 entry or part of it): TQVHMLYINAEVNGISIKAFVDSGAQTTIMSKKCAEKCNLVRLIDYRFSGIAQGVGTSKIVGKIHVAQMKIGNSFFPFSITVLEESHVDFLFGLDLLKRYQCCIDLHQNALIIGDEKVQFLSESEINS
T3 sequence (I7HUG0 whole entry, the tested form may be a part): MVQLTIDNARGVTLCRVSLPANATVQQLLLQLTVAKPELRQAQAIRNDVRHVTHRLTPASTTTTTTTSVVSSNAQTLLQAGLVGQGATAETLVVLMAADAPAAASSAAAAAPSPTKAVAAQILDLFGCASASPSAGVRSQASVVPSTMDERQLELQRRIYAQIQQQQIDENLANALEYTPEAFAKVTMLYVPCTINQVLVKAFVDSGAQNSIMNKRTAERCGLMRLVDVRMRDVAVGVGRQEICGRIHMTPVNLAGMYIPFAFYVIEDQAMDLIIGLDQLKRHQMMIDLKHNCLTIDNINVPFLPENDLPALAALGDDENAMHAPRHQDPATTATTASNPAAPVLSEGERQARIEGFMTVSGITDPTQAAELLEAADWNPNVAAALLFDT

In the case of Cc1c(O)cccc1C(=O)N[C@@H](CSc1ccccc1)[C@H](O)CN1C[C@H]2CCCC[C@H]2C[C@H]1C(=O)NC(C)(C)C [nelfinavir], the “effect on proteolytic activity of ToxoDdi1-RVP” value (ToxoDdi1-RVP [1]; 500 μM inhibitor, 20 μM ToxoDdi1-RVP, 2 μM HIV protease substrate-1, 0.1M sodium acetate pH 4.5, 1.0 M NaCl, 1.0 mM EDTA, 1.0 mM DTT, 10% DMSO, 37 °C, 1 h, emission 490 nm) is reported as “has an inhibitory effect on the proteolytic activity of ToxoDdi1-RVP”, the “fluorescence intensity in the presence of inhibitor, ToxoDdi1-RVP” value (ToxoDdi1-RVP [1]; 500 μM inhibitor, 20 μM ToxoDdi1-RVP, FRET, 490 nm, 37 °C, 1 h) is reported as “did not increase” and the Kd (ToxoDdi1-RVP [2]) is reported as 238 ± 6.3 µM. The “binding of inhibitor to CrypDdi1-RVP” value (CrypDdi1-RVP [3]) was “do not bind”, the “growth of T. gondii” value (T. gondii) was “inhibit the growth of T. gondii” and the “inhibition of human Ddi2 activity” value (human Ddi2) was “ability to inhibit the activity of human Ddi2”.

GVGRQEI [GVGRQEI] showed a Kd (LeishDdi1-fl) of 25.3 ± 3.5 µM.

In the case of CC(C)(C)NC(=O)[C@@H]1CN(Cc2cccnc2)CCN1C[C@@H](O)C[C@@H](Cc1ccccc1)C(=O)N[C@H]1c2ccccc2C[C@H]1O [indinavir], the “binding of inhibitor to CrypDdi1-RVP” value (CrypDdi1-RVP [3]) is reported as “do not bind”.

For CC(C)c1nc(CN(C)C(=O)N[C@H](C(=O)N[C@@H](Cc2ccccc2)C[C@H](O)[C@H](Cc2ccccc2)NC(=O)OCc2cncs2)C(C)C)cs1 [ritonavir], the “growth of T. gondii” value (T. gondii) is listed as “inhibit the growth of T. gondii”.

For CrypDdi1-RVP (domain or fragment), the stoichiometry N [4] was 2.

With “Arg-Glu(EDANS)-Ser-Gln-Asn-Tyr-Pro-Ile-Val-Gln-Lys(DABCYL)-Arg [HIV protease substrate-1, synthetic FRET peptide containing the HIV protease cleavage site (Tyr-Pro), Sigma-aldrich]” the “substrate cleavage: fluorescence intensity with increasing protein concentration, ToxoDdi1-RVP” value (ToxoDdi1-RVP [1]; 2 μM substrate, no inhibitor, different ToxoDdi1-RVP concentrations) was “An increase in the fluorescence intensity was observed with increasing protein concentration”, the “substrate cleavage: fluorescence intensity with increasing protein concentration, CrypDdi1-RVP” value (CrypDdi1-RVP [5]; 2 μM substrate, no inhibitor, different CrypDdi1-RVP concentrations) was “An increase in the fluorescence intensity was observed with increasing protein concentration” and the “substrate cleavage by HPLC, ToxoDdi1-RVP, 1 h” value (ToxoDdi1-RVP [6]) was “completely cleaved”. The “substrate cleavage by HPLC, CrypDdi1-RVP, 1 h” value (CrypDdi1-RVP [7]; 100 mM sodium acetate pH 4.7, 1 M NaCl, 1 mM DTT, 37 °C, 1 h) was “completely cleaved” and the “substrate cleavage by HPLC, CrypDdi1-RVP, 30 min” value (CrypDdi1-RVP [7]; pH 4.7, 37 °C, 30 min) was “both the substrate and the product were detected”.

Compound ToxoDdi1-RVP (domain or fragment) has a stoichiometry N [8] of 2.

With MIWRKPW [MIWRKPW] the Kd (LeishDdi1-fl) was 2.8 ± 1.5 µM.

In the case of CC(C)(C)NC(=O)[C@@H]1C[C@@H]2CCCC[C@@H]2CN1C[C@@H](O)[C@H](Cc1ccccc1)NC(=O)[C@H](CC(N)=O)NC(=O)c1ccc2ccccc2n1 [saquinavir], the “effect on proteolytic activity of CrypDdi1-RVP” value (CrypDdi1-RVP [5]; 500 μM inhibitor, 20 μM CrypDdi1-RVP, 2 μM HIV protease substrate-1, 0.1M sodium acetate pH 4.5, 1.0 M NaCl, 1.0 mM EDTA, 1.0 mM DTT, 10% DMSO, 37 °C, 1 h, emission 490 nm) is reported as “has an inhibitory effect on the proteolytic activity of CrypDdi1-RVP”, the “fluorescence intensity in the presence of inhibitor, CrypDdi1-RVP” value (CrypDdi1-RVP [5]; 500 μM inhibitor, 20 μM CrypDdi1-RVP, FRET, 490 nm, 37 °C, 1 h) is reported as “did not increase” and the “binding of inhibitor to ToxoDdi1-RVP” value (ToxoDdi1-RVP [2]; BLI, inhibitor 75-600 μM, MES pH 5.5) is reported as “do not bind”. The Kd (CrypDdi1-RVP [3]; Octet Red96, His-tagged CrypDdi1-RVP on Ni-NTA tip, 100 mM MES pH 5.5, 150 mM NaCl, 0.5% BSA, 0.05% Tween 20, 3 min, 1:1 Langmuir) was 242 ± 3 µM.
